Experimental findings from ChEMBL document CHEMBL1201862, “PubChem BioAssay data set” (2004) are described below.

Experiment [1] addresses T1, Fatty acid synthase (Homo sapiens, UniProt P49327). The experiment is described as follows: inhibition of human FAS-TE enzyme activity – biochemical, endpoint fluorescence intensity, uHTS hits, dose response (AID 624327).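 Note: fluorescence from hydrolysis of an O-methyl fluorescein acyl ester substrate by the enzyme.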 Type of experiment: functional.
Experiment [2] concerns the target T1, Fatty acid synthase. The experiment is described as follows: inhibition of human FAS-TE enzyme activity – biochemical, kinetic fluorescence intensity, dose response (AID 624326).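 Note: rate of fluorescence rise from hydrolysis of a fluorogenic O-methyl fluorescein ester substrate.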 The experiment is classed as functional.
Experiment [3] concerns the target T2, Long-chain-fatty-acid--AMP ligase FadD28 (Mycobacterium tuberculosis, UniProt P9WQ59).
T2 sequence (P9WQ59 whole entry): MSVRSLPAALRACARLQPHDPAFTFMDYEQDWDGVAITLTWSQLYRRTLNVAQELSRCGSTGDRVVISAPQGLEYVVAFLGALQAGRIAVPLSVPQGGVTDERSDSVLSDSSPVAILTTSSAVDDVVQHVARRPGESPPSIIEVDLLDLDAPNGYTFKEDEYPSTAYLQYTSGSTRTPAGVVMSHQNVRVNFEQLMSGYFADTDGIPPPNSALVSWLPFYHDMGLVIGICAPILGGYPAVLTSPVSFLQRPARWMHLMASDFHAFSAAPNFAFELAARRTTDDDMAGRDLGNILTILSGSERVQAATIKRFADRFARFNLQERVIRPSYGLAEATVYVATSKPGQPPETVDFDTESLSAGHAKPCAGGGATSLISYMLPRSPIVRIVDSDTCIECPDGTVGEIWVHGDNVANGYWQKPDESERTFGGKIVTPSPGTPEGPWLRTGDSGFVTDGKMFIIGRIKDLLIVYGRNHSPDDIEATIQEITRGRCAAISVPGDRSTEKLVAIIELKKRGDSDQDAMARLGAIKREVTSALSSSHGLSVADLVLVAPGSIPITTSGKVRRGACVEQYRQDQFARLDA
The experiment is described as follows: Fluorescence polarization aasay to screen for inhibitors that compete for the binding of FadD28 to a bisubstrate Measured in Biochemical System Using Plate Reader - 2147-01_Inhibitor_Dose_CherryPick_Activity. Type of experiment: functional, Mycobacterium tuberculosis H37Rv.

Experiment [4] can be described thus: microbe, parasite or virus in culture. The experiment is classed as functional. Conditions: Mycobacterium tuberculosis.
The nature of experiment [5]: viability of PTEN-deleted HCT116 cells – cell-based, HCT116 PTEN knockout, dose response (AID 1047).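 Note: HCT116 colon tumor cells with PTEN knocked out; cells exposed to compound for 60 hours before readout; potency for loss of cell viability measured by luminescence.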 Type of experiment: functional.
The nature of experiment [6]: viability of HCT116 lacking mutant beta-catenin – cell-based, human colon tumor, dose response (AID 1045).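 Note: HCT116 colon tumor cells with beta catenin knocked out; cells exposed to compound for 60 hours.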 The experiment is classed as functional.
In a further experiment the target is T3, Aminopeptidase N (Plasmodium falciparum FcB1/Columbia, UniProt O96935).
T3 sequence (O96935 whole entry): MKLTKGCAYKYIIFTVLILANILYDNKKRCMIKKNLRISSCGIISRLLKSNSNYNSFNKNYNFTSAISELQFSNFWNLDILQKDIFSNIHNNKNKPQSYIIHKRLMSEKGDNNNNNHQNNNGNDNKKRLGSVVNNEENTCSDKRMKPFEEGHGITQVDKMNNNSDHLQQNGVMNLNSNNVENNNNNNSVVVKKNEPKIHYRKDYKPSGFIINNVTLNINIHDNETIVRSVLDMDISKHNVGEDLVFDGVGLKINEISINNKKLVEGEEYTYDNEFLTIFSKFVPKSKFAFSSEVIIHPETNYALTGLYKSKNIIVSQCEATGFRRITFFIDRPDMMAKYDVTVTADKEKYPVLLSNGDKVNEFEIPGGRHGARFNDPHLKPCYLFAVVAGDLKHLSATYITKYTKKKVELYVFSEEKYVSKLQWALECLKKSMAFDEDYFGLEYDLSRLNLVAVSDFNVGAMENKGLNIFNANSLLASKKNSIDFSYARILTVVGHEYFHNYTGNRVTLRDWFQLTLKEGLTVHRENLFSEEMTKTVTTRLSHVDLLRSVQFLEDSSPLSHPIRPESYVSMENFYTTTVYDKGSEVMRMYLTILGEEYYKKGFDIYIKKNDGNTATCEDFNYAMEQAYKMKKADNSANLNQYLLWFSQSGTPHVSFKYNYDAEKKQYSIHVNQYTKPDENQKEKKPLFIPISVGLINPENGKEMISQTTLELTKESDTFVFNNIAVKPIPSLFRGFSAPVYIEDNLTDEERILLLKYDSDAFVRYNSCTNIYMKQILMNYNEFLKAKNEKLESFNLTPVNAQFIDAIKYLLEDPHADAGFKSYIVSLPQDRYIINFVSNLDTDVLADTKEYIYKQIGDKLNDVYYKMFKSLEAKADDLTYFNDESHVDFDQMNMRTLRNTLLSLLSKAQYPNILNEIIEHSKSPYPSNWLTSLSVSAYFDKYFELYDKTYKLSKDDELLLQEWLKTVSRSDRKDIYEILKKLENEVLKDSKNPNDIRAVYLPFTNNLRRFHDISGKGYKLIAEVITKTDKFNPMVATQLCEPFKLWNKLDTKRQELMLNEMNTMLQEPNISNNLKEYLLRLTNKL
Briefly: malaria alanyl aminopeptidase activity blockers – biochemical, fluorogenic H-Leu-NHMec substrate, 1536-well (AID 1445). More on the design: species or system Plasmodium falciparum 3D7, 3D7.

The target of experiment [7] is T4, Calpain-2 catalytic subunit (Sus scrofa, UniProt P43367).
T4 sequence (P43367 whole entry): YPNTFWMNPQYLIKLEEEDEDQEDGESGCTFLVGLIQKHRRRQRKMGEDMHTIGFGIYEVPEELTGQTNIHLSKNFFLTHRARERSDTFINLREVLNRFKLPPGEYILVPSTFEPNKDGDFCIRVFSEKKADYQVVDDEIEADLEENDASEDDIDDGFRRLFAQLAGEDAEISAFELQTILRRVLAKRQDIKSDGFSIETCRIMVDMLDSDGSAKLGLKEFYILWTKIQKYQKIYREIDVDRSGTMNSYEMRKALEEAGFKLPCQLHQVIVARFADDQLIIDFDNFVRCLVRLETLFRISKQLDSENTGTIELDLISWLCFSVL
Briefly: m-calpain protease blockers, concentration series – biochemical, fluorogenic peptide substrate, dose response (AID 1420). Type of experiment: functional.

Experiment [8] deals with Heat shock protein HSP 90-alpha (Homo sapiens, UniProt P07900). Type of experiment: functional, organism-based.
Experiment [9] concerns the target T5, Histone-lysine N-methyltransferase NSD2 (Homo sapiens, UniProt O96028).
T5 sequence (O96028 whole entry): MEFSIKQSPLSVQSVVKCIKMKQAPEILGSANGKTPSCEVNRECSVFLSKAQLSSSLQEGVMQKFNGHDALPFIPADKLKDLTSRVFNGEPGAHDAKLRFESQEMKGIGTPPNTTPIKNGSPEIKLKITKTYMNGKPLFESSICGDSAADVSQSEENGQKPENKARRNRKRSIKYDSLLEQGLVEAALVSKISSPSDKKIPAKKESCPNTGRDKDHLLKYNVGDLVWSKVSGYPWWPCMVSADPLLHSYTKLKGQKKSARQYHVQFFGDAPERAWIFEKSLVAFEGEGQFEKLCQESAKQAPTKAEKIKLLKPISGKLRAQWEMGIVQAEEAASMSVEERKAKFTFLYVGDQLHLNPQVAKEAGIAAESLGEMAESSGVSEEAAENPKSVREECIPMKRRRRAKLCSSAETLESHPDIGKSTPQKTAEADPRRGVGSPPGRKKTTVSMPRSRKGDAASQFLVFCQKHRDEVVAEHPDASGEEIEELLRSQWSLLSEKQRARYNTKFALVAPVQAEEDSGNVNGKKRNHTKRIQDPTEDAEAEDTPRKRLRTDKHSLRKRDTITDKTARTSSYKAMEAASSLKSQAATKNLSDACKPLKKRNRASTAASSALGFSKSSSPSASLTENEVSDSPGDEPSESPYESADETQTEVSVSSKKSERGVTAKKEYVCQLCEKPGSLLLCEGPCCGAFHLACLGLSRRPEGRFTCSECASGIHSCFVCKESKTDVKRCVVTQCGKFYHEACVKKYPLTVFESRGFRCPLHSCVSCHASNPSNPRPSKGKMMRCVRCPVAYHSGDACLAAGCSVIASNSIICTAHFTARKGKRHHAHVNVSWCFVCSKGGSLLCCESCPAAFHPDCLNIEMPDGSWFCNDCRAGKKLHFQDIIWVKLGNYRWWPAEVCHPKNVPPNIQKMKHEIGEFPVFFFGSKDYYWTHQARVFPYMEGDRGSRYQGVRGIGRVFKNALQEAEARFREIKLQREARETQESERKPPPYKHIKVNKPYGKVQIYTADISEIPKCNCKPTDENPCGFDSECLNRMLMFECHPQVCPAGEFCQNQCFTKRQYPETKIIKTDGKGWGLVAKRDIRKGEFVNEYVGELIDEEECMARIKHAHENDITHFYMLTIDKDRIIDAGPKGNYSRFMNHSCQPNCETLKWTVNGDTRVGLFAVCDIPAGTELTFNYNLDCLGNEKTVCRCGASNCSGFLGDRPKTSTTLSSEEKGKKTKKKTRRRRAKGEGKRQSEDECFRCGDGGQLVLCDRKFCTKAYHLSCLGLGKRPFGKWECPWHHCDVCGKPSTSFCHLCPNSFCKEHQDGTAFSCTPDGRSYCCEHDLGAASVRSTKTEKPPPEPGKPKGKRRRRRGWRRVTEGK
The experiment is classed as biochemical.

For a further experiment, the system named is SN12K1. Briefly: cells. Conditions: Homo sapiens. Type of experiment: functional.
A further experiment deals with P388/ADR. Briefly: cells. Type of experiment: functional. Conditions: Mus musculus.
In the next experiment the test system is P388. The experiment is described as follows: cells. The experiment is classed as functional. Conditions: Mus musculus.

Calls of active or inactive are those of the source.

T1 sequence (P49327 whole entry): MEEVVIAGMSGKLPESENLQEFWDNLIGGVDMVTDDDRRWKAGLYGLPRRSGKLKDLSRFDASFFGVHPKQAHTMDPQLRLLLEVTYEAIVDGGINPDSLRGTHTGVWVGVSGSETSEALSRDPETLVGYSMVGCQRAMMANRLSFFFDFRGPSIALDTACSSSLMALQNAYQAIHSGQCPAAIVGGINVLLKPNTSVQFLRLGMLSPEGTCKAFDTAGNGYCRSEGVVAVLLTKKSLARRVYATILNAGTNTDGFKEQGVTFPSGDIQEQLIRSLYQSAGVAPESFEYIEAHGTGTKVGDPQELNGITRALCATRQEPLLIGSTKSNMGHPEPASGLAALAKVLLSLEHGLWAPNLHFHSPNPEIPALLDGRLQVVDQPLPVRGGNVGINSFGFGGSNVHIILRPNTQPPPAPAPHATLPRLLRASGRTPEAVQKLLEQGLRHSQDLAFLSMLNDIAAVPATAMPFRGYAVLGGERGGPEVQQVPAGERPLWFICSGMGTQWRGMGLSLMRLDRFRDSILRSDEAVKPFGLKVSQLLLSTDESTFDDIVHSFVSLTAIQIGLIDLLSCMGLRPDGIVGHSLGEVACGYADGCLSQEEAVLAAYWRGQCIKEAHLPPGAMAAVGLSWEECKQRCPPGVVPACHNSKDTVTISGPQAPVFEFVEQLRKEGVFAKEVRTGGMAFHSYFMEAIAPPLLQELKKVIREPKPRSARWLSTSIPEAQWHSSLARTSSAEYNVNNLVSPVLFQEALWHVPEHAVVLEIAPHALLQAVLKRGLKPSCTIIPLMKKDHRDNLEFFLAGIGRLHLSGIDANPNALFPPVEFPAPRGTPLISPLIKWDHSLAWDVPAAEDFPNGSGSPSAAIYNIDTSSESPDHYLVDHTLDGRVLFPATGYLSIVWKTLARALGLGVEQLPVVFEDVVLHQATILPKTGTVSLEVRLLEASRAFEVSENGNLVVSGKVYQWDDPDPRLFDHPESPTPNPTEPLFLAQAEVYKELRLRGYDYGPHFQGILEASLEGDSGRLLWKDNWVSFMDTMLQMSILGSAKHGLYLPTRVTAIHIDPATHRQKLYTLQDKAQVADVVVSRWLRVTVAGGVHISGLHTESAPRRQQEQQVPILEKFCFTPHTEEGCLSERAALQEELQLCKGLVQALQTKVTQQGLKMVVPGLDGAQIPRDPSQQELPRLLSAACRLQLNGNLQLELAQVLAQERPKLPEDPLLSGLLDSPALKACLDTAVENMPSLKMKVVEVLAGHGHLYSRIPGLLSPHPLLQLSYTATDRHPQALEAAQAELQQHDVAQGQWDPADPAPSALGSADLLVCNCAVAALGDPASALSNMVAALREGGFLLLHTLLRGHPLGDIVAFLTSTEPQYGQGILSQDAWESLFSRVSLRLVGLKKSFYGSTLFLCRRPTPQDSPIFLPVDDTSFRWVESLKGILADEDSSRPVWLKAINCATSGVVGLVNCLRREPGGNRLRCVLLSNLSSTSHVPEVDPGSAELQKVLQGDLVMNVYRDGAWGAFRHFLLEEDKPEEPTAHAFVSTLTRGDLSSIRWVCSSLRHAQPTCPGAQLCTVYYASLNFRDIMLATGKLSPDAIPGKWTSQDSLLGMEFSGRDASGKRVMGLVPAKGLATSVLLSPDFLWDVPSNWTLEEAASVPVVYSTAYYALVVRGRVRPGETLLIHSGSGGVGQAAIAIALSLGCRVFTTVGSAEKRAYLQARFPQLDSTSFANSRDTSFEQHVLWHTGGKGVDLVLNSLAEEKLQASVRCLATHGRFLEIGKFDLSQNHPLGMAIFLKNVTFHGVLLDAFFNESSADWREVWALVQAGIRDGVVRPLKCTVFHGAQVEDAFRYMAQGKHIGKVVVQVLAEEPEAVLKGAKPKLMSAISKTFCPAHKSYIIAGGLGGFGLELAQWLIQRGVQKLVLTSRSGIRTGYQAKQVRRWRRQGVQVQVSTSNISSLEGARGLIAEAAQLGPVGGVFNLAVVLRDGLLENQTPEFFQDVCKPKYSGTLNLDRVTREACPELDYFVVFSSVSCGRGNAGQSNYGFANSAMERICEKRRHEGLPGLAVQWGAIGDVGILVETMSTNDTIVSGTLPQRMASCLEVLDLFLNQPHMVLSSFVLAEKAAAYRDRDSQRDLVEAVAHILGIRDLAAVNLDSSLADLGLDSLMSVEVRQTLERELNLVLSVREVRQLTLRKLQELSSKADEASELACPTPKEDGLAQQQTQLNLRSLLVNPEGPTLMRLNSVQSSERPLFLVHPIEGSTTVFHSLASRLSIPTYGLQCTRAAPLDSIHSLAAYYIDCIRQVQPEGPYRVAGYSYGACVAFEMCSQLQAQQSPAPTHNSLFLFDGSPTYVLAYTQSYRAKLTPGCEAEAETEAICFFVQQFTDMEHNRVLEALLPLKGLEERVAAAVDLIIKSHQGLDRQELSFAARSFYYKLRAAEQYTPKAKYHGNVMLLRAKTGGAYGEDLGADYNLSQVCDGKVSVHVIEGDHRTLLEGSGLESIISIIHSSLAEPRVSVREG

`Cc1ccc(S(=O)(=O)c2nnn3c2nc(NCCCN2CCCC2=O)c2ccccc23)cc1C`: the IC50 at Fatty acid synthase [1] is 5.19 µM (active); at Fatty acid synthase [2], 2.85 µM (active). For `CC(=O)c1cccc2c1OC(C)C(=O)N2Cc1ccc(Cl)cc1` (centres undefined), in that order: 9.15 µM (active) and 5.63 µM (active).

For the compound `CCN(c1ccc(NC(=O)CSc2ccc3c(c2)OCCO3)cc1)C(C)C`, in experiment [3], the AC50 is 20.3 µM (active). Consider `Cc1cc(C(=O)CCl)c(C)n1-c1cccc([N+](=O)[O-])c1`, for which the CC50 in [4] was 13.5 µM (active). For the compound `N#C/C(=N\Nc1ccc([N+](=O)[O-])cc1)C(N)=S`, the AC50 in experiment [3] was 19.5 µM (active). With `Cc1oc(-c2cccc(Cl)c2)nc1CN1CCC(C(=O)N2CCN(c3ccccc3F)CC2)CC1`, the EC50 in experiment [5] was 15.5 µM (active); in experiment [6] it was 14.5 µM (active). For the same compound, in [4], the CC50 was 28.9 µM (active).

`CCCCCn1c(CN2CCN(c3cccc(Cl)c3)CC2)nc2c1c(=O)[nH]c(=O)n2C`: the CC50 in experiment [4] was > 40 µM (active). Regarding `CCn1cc(CN2CCC(C(=O)Nc3ccc(Oc4cccnc4)cc3)CC2)c(C)n1`, the half-maximal activity concentration (AC50) in experiment [3] is 21.7 µM (active).

For the compound `C/C(NNC(=O)c1ccccc1O)=C1/C(=O)NC(=O)N(Cc2ccccc2)C1=O`, the IC50 on Aminopeptidase N is 19.2 µM (active). Moreover, the AC50 in [3] was 20.4 µM (active). Take `O=C1NC(=S)S/C1=C\c1cc2ccccc2nc1N1CCCCC1`: the figures for the IC50 (at Fatty acid synthase [1]; in experiment [7]; at Fatty acid synthase [2]) were 46 µM (inactive), 1.63 µM (not active) and 11.2 µM (active), respectively. For the same compound, the AC50 in [8] was 3.98 µM (active); in experiment [9] it was 11.1 µM (active). Regarding `C=CCCCCn1c2ccccc2c2c(C)c3cnccc3c(C)c21`, the values for the GI50 in the experiment on SN12K1, in the experiment with P388/ADR and in the experiment with P388 were 5.97 µM (inactive), 1.84 µM (inactive) and 1.93 µM (inactive), respectively. On to `Cn1cc(/C=N/NC(=O)COc2ccccc2[N+](=O)[O-])c2ccccc21`, for which the AC50 in [3] is > 100 µM (inactive).

On to `COc1cccc(NC(=O)CN2C(=O)CSc3ccc(S(=O)(=O)N4CCCCC4)cc32)c1`, for which the IC50 on Fatty acid synthase [1] is 8.72 µM (active); on Fatty acid synthase [2] it was 9.58 µM (active). Turning to `C=CC(=O)NC(=N)NC#N`, the figures for the GI50 with SN12K1, with P388/ADR and in the experiment on P388 were > 100 µM (inactive), 25.8 µM (inactive) and 12.8 µM (inactive), respectively. Turning to `COc1cc(/C=C2\SC(=O)N(CC(=O)Nc3cccc(C)c3)C2=O)ccc1OC(C)C(=O)O` (centres undefined), the AC50 in experiment [3] is 0.583 µM (active).
